{"source": "paper PMC8262356", "about": "“SLC26A6-selective inhibitor identified in a small-molecule screen blocks fluid absorption in small intestine” (JCI Insight, 2021)", "target": "T1, CFTR (Homo sapiens, UniProt P13569)", "T1 construct": "endogenous in cells; host or cells: well-differentiated human bronchial epithelial (HBE) cells at air-liquid interface", "T1 sequence (P13569 whole entry)": "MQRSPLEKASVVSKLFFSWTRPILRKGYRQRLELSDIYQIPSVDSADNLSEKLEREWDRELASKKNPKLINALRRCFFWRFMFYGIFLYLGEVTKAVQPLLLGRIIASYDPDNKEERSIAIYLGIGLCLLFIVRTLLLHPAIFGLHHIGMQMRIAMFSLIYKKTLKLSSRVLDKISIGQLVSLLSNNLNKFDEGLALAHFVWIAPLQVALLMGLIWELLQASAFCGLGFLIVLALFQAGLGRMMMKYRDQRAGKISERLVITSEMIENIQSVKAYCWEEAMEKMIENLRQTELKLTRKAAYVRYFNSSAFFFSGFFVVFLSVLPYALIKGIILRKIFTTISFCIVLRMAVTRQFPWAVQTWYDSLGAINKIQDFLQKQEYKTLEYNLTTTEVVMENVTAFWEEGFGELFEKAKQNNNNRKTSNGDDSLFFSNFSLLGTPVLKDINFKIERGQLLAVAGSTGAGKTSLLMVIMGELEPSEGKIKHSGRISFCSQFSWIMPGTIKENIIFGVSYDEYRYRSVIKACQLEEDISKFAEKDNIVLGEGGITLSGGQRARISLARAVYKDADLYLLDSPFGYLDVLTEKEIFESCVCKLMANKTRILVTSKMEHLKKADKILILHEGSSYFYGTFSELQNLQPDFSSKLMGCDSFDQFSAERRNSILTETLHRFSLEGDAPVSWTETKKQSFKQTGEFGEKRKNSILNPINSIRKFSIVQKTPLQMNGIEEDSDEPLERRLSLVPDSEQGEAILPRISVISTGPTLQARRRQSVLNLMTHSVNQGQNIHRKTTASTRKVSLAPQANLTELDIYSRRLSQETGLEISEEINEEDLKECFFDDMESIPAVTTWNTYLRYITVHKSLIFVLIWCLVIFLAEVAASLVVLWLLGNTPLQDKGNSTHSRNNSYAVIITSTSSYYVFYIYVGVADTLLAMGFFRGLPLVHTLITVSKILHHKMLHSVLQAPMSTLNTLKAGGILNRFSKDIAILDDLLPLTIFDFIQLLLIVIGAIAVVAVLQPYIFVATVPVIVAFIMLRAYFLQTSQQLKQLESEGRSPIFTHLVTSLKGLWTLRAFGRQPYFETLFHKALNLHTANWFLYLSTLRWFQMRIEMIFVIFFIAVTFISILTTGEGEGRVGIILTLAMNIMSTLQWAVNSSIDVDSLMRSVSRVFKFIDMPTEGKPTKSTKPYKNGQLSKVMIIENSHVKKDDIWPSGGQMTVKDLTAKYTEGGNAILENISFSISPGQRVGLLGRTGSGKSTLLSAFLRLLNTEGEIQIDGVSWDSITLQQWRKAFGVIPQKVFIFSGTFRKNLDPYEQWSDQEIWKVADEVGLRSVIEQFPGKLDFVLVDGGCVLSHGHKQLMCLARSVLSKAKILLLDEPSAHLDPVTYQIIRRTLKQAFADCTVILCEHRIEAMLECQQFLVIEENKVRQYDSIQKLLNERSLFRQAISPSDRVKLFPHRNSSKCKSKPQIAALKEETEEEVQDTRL", "assay": "Short-circuit current in well-differentiated HBE cells, forskolin/CFTRinh-172 response", "type": "cell-based", "conditions": "25 μM pretreatment", "description": "PAT1inh-B01 selectivity was studied by testing its effects on related SLC26A family anion transporters and the Cl^– channel TMEM16A. These measurements used a similar Cl^–/I^– exchange protocol, but FRT cells separately expressed each of the SLC26A family members or TMEM16A. […] PAT1inh-B01 selectivity was also tested by short-circuit current (Isc) in well-differentiated human bronchial epithelial (HBE) cells, which have a complex ion transport mechanism that includes cystic fibrosis transmembrane conductance regulator (CFTR), epithelial Na^+ channel (ENaC), and Ca^+2-activated chloride channels (CaCCs) ([13]). […] Potential PAT1inh-B01 cytotoxicity was studied in FRT cells.\nFigure 3 PAT1inh-B01 selectivity and cytotoxicity. […] Cl^–/I^– exchange or I^– influx measured in FRT cells coexpressing YFP and SLC26A isoforms or TMEM16A, with data shown for 25 μM PAT1inh-B01, DMSO vehicle control, and 500 μM niflumic acid (positive control for SLC26A transporters) or 10 μM TMinh-23 (positive control for TMEM16A). […] (C) (left) Short-circuit current (Isc) in well-differentiated HBE cells measured in the absence (top) and presence (bottom) of 25 μM PAT1inh-B01. […]\nYFP-based cellular assays of slc26a3, slc26a4, SLC26A9, and TMEM16A function were performed as described previously ([7]). […] The activities of ENaC, CFTR, and CaCC were determined using well-differentiated HBE cells as described previously ([13]). […]"}
{"compound": "Cc1c(Br)c(C(F)(F)F)nn1CC(=O)N1CCc2nc3cc(-c4ccccc4)[nH]n3c(=O)c2C1", "note": "[PAT1inh-B01]", "values": [{"measurement": "effect on CFTR activity (Isc response to forskolin/CFTRinh-172)", "value": "no significant effect"}]}
